Test system: Chenopodium album
Assay: Test Example 3: herbicidal effect test by treatment of dry field farming soil (one day after seeding)
Format: in vivo
Conditions: 120 g/10a active ingredient, evaluated 14 days after treatment
Summary of the method: (§1)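 Herbicidal rate (%) = {1 − treated/untreated mean plant dry weight} × 100, scored 14 days after spraying, duplicate pots per concentration. Emulsified compound was water-diluted and applied to soil surface one day post-seeding at 120 g a.i. per 10 ares.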

SMILES	herbicidal rate, Chenopodium album [%]
CCCCC(C)n1oc(=O)c(Cc2ccccc2NS(=O)(=O)C(F)(F)F)c1C (centres unmarked) [Compound 1-120]	50
Cc1c(Cc2ccccc2N(S(=O)(=O)C(F)(F)F)S(=O)(=O)C(F)(F)F)c(=O)on1CCS(C)(=O)=O [Compound 1-1006]	60

Test system: Echinochloa crus-galli
Assay: as above
Format: in vivo
Conditions: 120 g/10a active ingredient, evaluated 14 days after treatment
Summary of the method: as §1

SMILES	herbicidal rate, Echinochloa crus-galli [%]
CCCCC(C)n1oc(=O)c(Cc2ccccc2NS(=O)(=O)C(F)(F)F)c1C (centres unmarked) [Compound 1-120]	90
Cc1c(Cc2ccccc2N(S(=O)(=O)C(F)(F)F)S(=O)(=O)C(F)(F)F)c(=O)on1CCS(C)(=O)=O [Compound 1-1006]	80

Test system: Amaranthus viridis
Assay: as above
Format: in vivo
Conditions: 120 g/10a active ingredient, evaluated 14 days after treatment
Summary of the method: as §1

SMILES	herbicidal rate, Amaranthus viridis [%]
CCCCC(C)n1oc(=O)c(Cc2ccccc2NS(=O)(=O)C(F)(F)F)c1C (centres unmarked) [Compound 1-120]	50
Cc1c(Cc2ccccc2N(S(=O)(=O)C(F)(F)F)S(=O)(=O)C(F)(F)F)c(=O)on1CCS(C)(=O)=O [Compound 1-1006]	60

Test system: southern crabgrass
Assay: as above
Format: in vivo
Conditions: 120 g/10a active ingredient, evaluated 14 days after treatment
Summary of the method: as §1

SMILES	herbicidal rate, southern crabgrass [%]
CCCCC(C)n1oc(=O)c(Cc2ccccc2NS(=O)(=O)C(F)(F)F)c1C (centres unmarked) [Compound 1-120]	90
Cc1c(Cc2ccccc2N(S(=O)(=O)C(F)(F)F)S(=O)(=O)C(F)(F)F)c(=O)on1CCS(C)(=O)=O [Compound 1-1006]	60

Test system: Chenopodium album
Assay: Test Example 4: herbicidal effect test by treatment of leave and stem in dry field farming (seven days after seeding)
Format: in vivo
Conditions: 120 g/10a active ingredient; emulsion sprayed seven days after seeding; evaluated 14 days after treatment
Summary of the method: (§2)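 Twenty seeds per species were mixed into the top 1 cm of alluvial soil in 36 cm^2 pots; emulsions were sprayed seven days after seeding at 100 L per 10 ares (120 g active ingredient per 10 ares). Herbicidal rate (%) = {1 − treated/untreated mean dry weight} × 100, 14 days after treatment, duplicate.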

SMILES	herbicidal effect (herbicidal rate), Chenopodium album [%]
CCCCC(C)n1oc(=O)c(Cc2ccccc2NS(=O)(=O)C(F)(F)F)c1C (centres unmarked) [Compound 1-120]	50
Cc1c(Cc2ccccc2N(S(=O)(=O)C(F)(F)F)S(=O)(=O)C(F)(F)F)c(=O)on1CCS(C)(=O)=O [Compound 1-1006]	40

Test system: Echinochloa crus-galli
Assay: as above
Format: in vivo
Conditions: 120 g/10a active ingredient; emulsion sprayed seven days after seeding; evaluated 14 days after treatment
Summary of the method: as §2

SMILES	herbicidal effect (herbicidal rate), Echinochloa crus-galli [%]
CCCCC(C)n1oc(=O)c(Cc2ccccc2NS(=O)(=O)C(F)(F)F)c1C (centres unmarked) [Compound 1-120]	90
Cc1c(Cc2ccccc2N(S(=O)(=O)C(F)(F)F)S(=O)(=O)C(F)(F)F)c(=O)on1CCS(C)(=O)=O [Compound 1-1006]	40

Test system: Amaranthus viridis
Assay: as above
Format: in vivo
Conditions: 120 g/10a active ingredient; emulsion sprayed seven days after seeding; evaluated 14 days after treatment
Summary of the method: as §2

SMILES	herbicidal effect (herbicidal rate), Amaranthus viridis [%]
CCCCC(C)n1oc(=O)c(Cc2ccccc2NS(=O)(=O)C(F)(F)F)c1C (centres unmarked) [Compound 1-120]	60
Cc1c(Cc2ccccc2N(S(=O)(=O)C(F)(F)F)S(=O)(=O)C(F)(F)F)c(=O)on1CCS(C)(=O)=O [Compound 1-1006]	40

Test system: southern crabgrass
Assay: as above
Format: in vivo
Conditions: 120 g/10a active ingredient; emulsion sprayed seven days after seeding; evaluated 14 days after treatment
Summary of the method: as §2

SMILES	herbicidal effect (herbicidal rate), southern crabgrass [%]
CCCCC(C)n1oc(=O)c(Cc2ccccc2NS(=O)(=O)C(F)(F)F)c1C (centres unmarked) [Compound 1-120]	80
Cc1c(Cc2ccccc2N(S(=O)(=O)C(F)(F)F)S(=O)(=O)C(F)(F)F)c(=O)on1CCS(C)(=O)=O [Compound 1-1006]	40

Test system: broad leaf weeds (Lindernia pyxidaria and Monochoria vaginalis)
Assay: Test Example 2: herbicidal effect test by treatment during growing period in paddy rice cultivation (seven days after seeding)
Format: in vivo
Conditions: Lindernia pyxidaria, 120 g/10a active ingredient, assessed 14 days after treatment, dry weight vs untreated area
Summary of the method: (§3)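 Emulsion formulations, diluted in water, applied dropwise to flooded pots (about 3 cm water) 7 days post-seeding at 120 g a.i./10 ares. Weeds sown 30 seeds each, 0–1 cm deep in puddled paddy soil; greenhouse. Readout: % reduction in plant dry weight vs untreated, day 14, duplicates.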

SMILES	Herbicidal rate (%) Lindernia pyxidaria [%]
CCCCC(C)n1oc(=O)c(Cc2ccccc2NS(=O)(=O)C(F)(F)F)c1C (centres unmarked) [Compound 1-120]	80
Cc1c(Cc2ccccc2N(S(=O)(=O)C(F)(F)F)S(=O)(=O)C(F)(F)F)c(=O)on1CCS(C)(=O)=O [Compound 1-1006]	60

Same assay, conditions: Monochoria vaginalis, 120 g/10a active ingredient, assessed 14 days after treatment, dry weight vs untreated area

SMILES	Herbicidal rate (%) Monochoria vaginalis [%]
CCCCC(C)n1oc(=O)c(Cc2ccccc2NS(=O)(=O)C(F)(F)F)c1C (centres unmarked) [Compound 1-120]	80
Cc1c(Cc2ccccc2N(S(=O)(=O)C(F)(F)F)S(=O)(=O)C(F)(F)F)c(=O)on1CCS(C)(=O)=O [Compound 1-1006]	80

Test system: Echinochloa crus-galli
Assay: as above
Format: in vivo
Conditions: 120 g/10a active ingredient, assessed 14 days after treatment, dry weight vs untreated area
Summary of the method: as §3

SMILES	Herbicidal rate (%) Echinochloa crus-galli [%]
CCCCC(C)n1oc(=O)c(Cc2ccccc2NS(=O)(=O)C(F)(F)F)c1C (centres unmarked) [Compound 1-120]	90
Cc1c(Cc2ccccc2N(S(=O)(=O)C(F)(F)F)S(=O)(=O)C(F)(F)F)c(=O)on1CCS(C)(=O)=O [Compound 1-1006]	80

Test system: Scirpus juncoides
Assay: as above
Format: in vivo
Conditions: 120 g/10a active ingredient, assessed 14 days after treatment, dry weight vs untreated area
Summary of the method: as §3

SMILES	Herbicidal rate (%) Scirpus juncoides [%]
CCCCC(C)n1oc(=O)c(Cc2ccccc2NS(=O)(=O)C(F)(F)F)c1C (centres unmarked) [Compound 1-120]	90
Cc1c(Cc2ccccc2N(S(=O)(=O)C(F)(F)F)S(=O)(=O)C(F)(F)F)c(=O)on1CCS(C)(=O)=O [Compound 1-1006]	90

Test system: broad leaf weeds (Lindernia pyxidaria and Monochoria vaginalis)
Assay: Test Example 1: herbicidal effect test by treatment of rice paddy soil (immediately after seeding)
Format: in vivo
Conditions: Lindernia pyxidaria, 120 g/10a active ingredient, dry weight vs untreated area, 14 days after treatment
Summary of the method: (§4)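 Applied at 120 g a.i./10 ares as diluted emulsion dropped into flooded (~3 cm) paddy soil pots right after sowing seeds 0–1 cm deep; greenhouse, two replicates. At day 14, dry weight of treated versus untreated plants gives % herbicidal rate.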

SMILES	Herbicidal rate (%) Lindernia pyxidaria [%]
CCCCC(C)n1oc(=O)c(Cc2ccccc2NS(=O)(=O)C(F)(F)F)c1C (centres unmarked) [Compound 1-120]	100
Cc1c(Cc2ccccc2N(S(=O)(=O)C(F)(F)F)S(=O)(=O)C(F)(F)F)c(=O)on1CCS(C)(=O)=O [Compound 1-1006]	70

Same assay, conditions: Monochoria vaginalis, 120 g/10a active ingredient, dry weight vs untreated area, 14 days after treatment

SMILES	Herbicidal rate (%) Monochoria vaginalis [%]
CCCCC(C)n1oc(=O)c(Cc2ccccc2NS(=O)(=O)C(F)(F)F)c1C (centres unmarked) [Compound 1-120]	100
Cc1c(Cc2ccccc2N(S(=O)(=O)C(F)(F)F)S(=O)(=O)C(F)(F)F)c(=O)on1CCS(C)(=O)=O [Compound 1-1006]	60

Test system: Echinochloa crus-galli
Assay: as above
Format: in vivo
Conditions: 120 g/10a active ingredient, dry weight vs untreated area, 14 days after treatment
Summary of the method: as §4

SMILES	Herbicidal rate (%) Echinochloa crus-galli [%]
CCCCC(C)n1oc(=O)c(Cc2ccccc2NS(=O)(=O)C(F)(F)F)c1C (centres unmarked) [Compound 1-120]	100
Cc1c(Cc2ccccc2N(S(=O)(=O)C(F)(F)F)S(=O)(=O)C(F)(F)F)c(=O)on1CCS(C)(=O)=O [Compound 1-1006]	70

Test system: Scirpus juncoides
Assay: as above
Format: in vivo
Conditions: 120 g/10a active ingredient, dry weight vs untreated area, 14 days after treatment
Summary of the method: as §4

SMILES	Herbicidal rate (%) Scirpus juncoides [%]
CCCCC(C)n1oc(=O)c(Cc2ccccc2NS(=O)(=O)C(F)(F)F)c1C (centres unmarked) [Compound 1-120]	100
Cc1c(Cc2ccccc2N(S(=O)(=O)C(F)(F)F)S(=O)(=O)C(F)(F)F)c(=O)on1CCS(C)(=O)=O [Compound 1-1006]	90
